According to US20220298511A1, “APPLICATION OF COMBINED INHIBITION OF LNCRNA SAMMSON AND BRAF KINASE IN DELAYING ADAPTIVE DRUG-RESISTANCE OF MELANOMA” (XI'AN JIAOTONG UNIVERSITY, priority 2021, published 2022):

Legend:
[1] = test system: SAMMSON RNA level in A375 melanoma cells carrying BRAF^V600E mutation; assay: qRT-PCR analysis of SAMMSON RNA level after kinase inhibitor treatment; settings: 2 μM inhibitor, 0, 6 and 24 hours, actin as internal control
Experimental: (§3) Melanoma cell lines 1205Lu and A375 carrying BRAF^V600E mutation and HEK293FT cells were cultured in a 37° C. constant temperature incubator (containing 5% CO2). The A375 and HEK293FT cells were cultured in Dulbecco's Modified Eagle's Medium (DMEM), and the 1205Lu cells were cultured in Roswell Park Memorial Institute 1640 medium (RPMI 1640 medium). Both of the media contain 10% fetal bovine serum, penicillin (100 units/ml), and streptomycin (100 μg/ml).
(§4) Total RNA was extracted from the melanoma cells using TriPure Isolation Reagent (Roche, Basel, Switzerland), and then reverse transcribed into cDNA using the kit PrimeScript RT Master Mix (Takara #DRR036A, Osaka, Japan). Quantitative real-time PCR reactions were performed using iQ SYBR Green Supermix (BioRad), and analyzed by CFX Connect real-time PCR detection system (BioRad).

[2] = test system: SAMMSON RNA level in 1205Lu melanoma cells carrying BRAF^V600E mutation; assay: as above; settings: 1205Lu cells, 2 μM inhibitor, 0, 6 and 24 hours, actin as internal control
Experimental: as §3, §4

[3] = test system: A375 cells; assay: Annexin-V/PI apoptosis assay with SAMMSON siRNA knockdown and vemurafenib; format: cell-based; settings: then 5 μM vemurafenib 48 hours
Experimental: (§1) The cells were collected, washed twice with PBS and stained for 20-30 minutes using Annexin-V-FLUOS kit (Roche) according to the manufacturer's protocol. The stained cells were analyzed by a flow cytometer (Beckman Coulter, Indianapolis Ind., USA). The data were analyzed using Flowjo software (Three Star, Inc., Ashland, Oreg., USA).
The non-targeting control siRNA sequence is:
We tested whether the up-regulation of SAMMSON induced by the inhibition of the ERK signaling pathway is involved in the adaptive drug-resistance of melanoma cells. Two pairs of specific siRNAs (SEQ ID NO: 4 and SEQ ID NO: 5) were used to knock down SAMMSON in two melanoma cell lines A375 and 1205Lu carrying BRAF mutations. […] Referring also to FIGS. 3C to 3F, in A375 cells, percentage of cell apoptosis increased from 19% to 43% (SAM #1) and 37% (SAM #2), and in 1205Lu cells, from 26% to 43% (SAM #1) and 46% (SAM #2).

[4] = test system: 1205Lu TR SAMMSON cells; assay: Annexin-V/PI apoptosis assay with doxycycline-induced SAMMSON overexpression; format: cell-based; settings: 5 μM vemurafenib 48 hours
Experimental: (§2) The wild-type HA-SOX10 cDNA or SAMMSON cDNA was cloned into a pENTR/D-TOPO vector (Thermo Fisher Scientific) to construct an entry vector. Then, the entry vector and a pLentipuro/TO/V5-DEST vector were recombined to form a lentiviral vector. Lentivirus packaging for the lentiviral vector was performed in HEK293FT cells to produce lentiviruses. The melanoma cells 1205Lu and A375 were infected with the lentiviruses for 72 hours, and then screened by using puromycin to produce A375-TR HA-SOX10 WT cells, 1205Lu-TR HA-SOX10 WT cells, A375-TR SAMMSON cells and 1205Lu-TR SAMMSON cells.
as §1

[5] = test system: A375 TR SAMMSON cells; assay: as above; format: cell-based; settings: 5 μM vemurafenib 48 hours
Experimental: as §2, §1

[6] = with 100 ng/ml doxycycline 72 hours (SAMMSON overexpressed)

With `O=C(Nc1ccc2[nH]nc(-c3ccncc3)c2c1)[C@@H]1CCN(CC(=O)N2CCN(c3ccc(-c4ncccn4)cc3)CC2)C1` [SCH772984] the “RNA level of SAMMSON” value [1] was “rapidly up-regulate the RNA level of SAMMSON” and the “RNA level of SAMMSON” value [2] was “rapidly up-regulate the RNA level of SAMMSON”.

In the case of `CCCS(=O)(=O)Nc1ccc(F)c(C(=O)c2c[nH]c3ncc(-c4ccc(Cl)cc4)cc23)c1F` [vemurafenib, Vemurafenib], the “percentage of cell apoptosis” value ([3]; control siRNA 48 hours) was 19%, the “percentage of cell apoptosis” value [4, 6] was 33% and the “percentage of cell apoptosis” value ([4]; without doxycycline) was 44%. For the same compound, the “percentage of cell apoptosis” value [5, 6] was 33% and the “percentage of cell apoptosis” value ([5]; without doxycycline) was 51%.

With “SAM #1: SAMMSON-specific siRNA, SEQ ID NO: 4, 5′-GUCGCUAGACAUUUGAGGA-3′ (listed as RNA, chemistry not given here)” the “percentage of cell apoptosis” value ([3]; SAMMSON siRNA 48 hours) was 43%.

In the case of “SAM #2: SAMMSON-specific siRNA, SEQ ID NO: 5, 5′-CCAACUCUCAAAGUAACUU-3′ (listed as RNA, chemistry not given here)”, the “percentage of cell apoptosis” value ([3]; SAMMSON siRNA 48 hours) was 37%.
